# Test results reported in patent US20230062100A1, “SUBSTITUTED AMINOQUINOLONES AS DGKALPHA INHIBITORS FOR IMMUNE ACTIVATION” (Bayer Aktiengesellschaft, priority 2019, published 2023).
# Molecular target: DGKα (Homo sapiens, UniProt P23743)
# Test: Human DGKα kinase activity inhibition assay (ADP-Glo)
# Format: biochemical
# Conditions: in vitro human DGKα kinase activity inhibition assay
# Procedure, shortened: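 C-terminally FLAG-tagged full-length human DGKα from baculovirus/insect cells (typically ~0.1 nM) phosphorylated 1,2-dioleoyl-sn-glycerol in octyl-β-D-glucopyranoside micelles in MOPS pH 7.4. ADP formed was quantified by ADP-Glo luminescence after 1 h ATP depletion at 22 °C.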
# DGKα, sequence (P23743 with tags, fused parts or gaps): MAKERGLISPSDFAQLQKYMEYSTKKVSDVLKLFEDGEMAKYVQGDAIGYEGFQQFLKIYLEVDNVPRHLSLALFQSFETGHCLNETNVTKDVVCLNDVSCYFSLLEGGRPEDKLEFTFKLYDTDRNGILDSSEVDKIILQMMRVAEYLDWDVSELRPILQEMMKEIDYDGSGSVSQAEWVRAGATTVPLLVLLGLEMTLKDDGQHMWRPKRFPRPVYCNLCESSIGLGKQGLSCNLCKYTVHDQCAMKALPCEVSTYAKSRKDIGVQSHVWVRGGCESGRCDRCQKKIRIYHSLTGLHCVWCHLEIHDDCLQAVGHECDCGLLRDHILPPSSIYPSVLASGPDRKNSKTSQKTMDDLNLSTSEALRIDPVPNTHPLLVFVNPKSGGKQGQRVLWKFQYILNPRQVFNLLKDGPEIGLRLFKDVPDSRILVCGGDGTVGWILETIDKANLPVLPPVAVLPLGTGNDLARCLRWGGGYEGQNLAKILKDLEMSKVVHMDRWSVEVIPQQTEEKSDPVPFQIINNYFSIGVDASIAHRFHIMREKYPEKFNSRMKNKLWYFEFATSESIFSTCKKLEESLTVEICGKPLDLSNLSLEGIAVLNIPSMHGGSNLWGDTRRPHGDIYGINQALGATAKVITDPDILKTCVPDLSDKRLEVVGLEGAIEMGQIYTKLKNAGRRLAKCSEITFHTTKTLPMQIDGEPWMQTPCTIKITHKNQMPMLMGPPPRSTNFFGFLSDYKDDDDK
row,Structure (SMILES),IC50
1,"COc1cccc(COC2CCN(c3c(C(N)=O)c(=O)n(C)c4ccccc34)CC2)c1 [Example 125, 4-{4-[(3-methoxyphenyl)methoxy]piperidin-1-yl}-1-methyl-2-oxo-1,2-dihydroquinoline-3-carboxamide]",43 nM
2,"Cn1c(=O)c(C(N)=O)c(N2CCC(OCc3cccc(F)c3)CC2)c2ccccc21 [Example 128, 4-{4-[(3-fluorophenyl)methoxy]piperidin-1-yl}-1-methyl-2-oxo-1,2-dihydroquinoline-3-carboxamide]",29 nM
3,"Cn1c(=O)c(C#N)c(N2CCC(Oc3ccc(OC(F)(F)F)cc3)CC2)c2cccc(F)c21 [Example 129, 8-fluoro-1-methyl-2-oxo-4-{4-[4-(trifluoromethoxy)phenoxy]piperidin-1-yl}-1,2-dihydroquinoline-3-carbonitrile]",29 nM
4,"Cn1c(=O)c(C#N)c(N2CCC(Oc3ccc(OC(F)(F)F)cc3)CC2)c2cccc(Br)c21 [Example 130, 8-bromo-1-methyl-2-oxo-4-{4-[4-(trifluoromethoxy)phenoxy]piperidin-1-yl}-1,2-dihydroquinoline-3-carbonitrile]",202 nM
5,"Cn1c(=O)c(C#N)c(N2CCC(Oc3ccc(OC(F)(F)F)cc3)CC2)c2cccc(Cl)c21 [Example 131, 8-chloro-1-methyl-2-oxo-4-{4-[4-(trifluoromethoxy)phenoxy]piperidin-1-yl}-1,2-dihydroquinoline-3-carbonitrile]",18 nM
6,"Cn1c(=O)c(C#N)c(N2CCC(Oc3ccc(OC(F)(F)F)cc3)CC2)c2cccc(C#N)c21 [Example 132, 1-methyl-2-oxo-4-{4-[4-(trifluoromethoxy)phenoxy]piperidin-1-yl}-1,2-dihydroquinoline-3,8-dicarbonitrile]",536 nM
7,"Cn1c(=O)c(C#N)c(N2CCC(Oc3ccc(OC(F)(F)F)cc3)CC2)c2cccc(N3CCCC3=O)c21 [Example 133, 1-methyl-2-oxo-8-(2-oxopyrrolidin-1-yl)-4-{4-[4-(trifluoromethoxy)phenoxy]piperidin-1-yl}-1,2-dihydroquinoline-3-carbonitrile]",55 nM
8,"Cn1c(=O)c(C#N)c(N2CCC(Oc3ccc(OC(F)(F)F)cc3)CC2)c2cccc(N=S(C)(C)=O)c21 [Example 134, 8-{[dimethyl(oxo)-λ^6-sulfanylidene]amino}-1-methyl-2-oxo-4-{4-[4-(trifluoromethoxy)phenoxy]piperidin-1-yl}-1,2-dihydroquinoline-3-carbonitrile]",37 nM
9,"Cn1c(=O)c(C#N)c(N2CCC(Oc3ccc(OC(F)(F)F)cc3)CC2)c2cccc(P(C)(C)=O)c21 [Example 135, 8-(dimethylphosphoryl)-1-methyl-2-oxo-4-{4-[4-(trifluoromethoxy)phenoxy]piperidin-1-yl}-1,2-dihydroquinoline-3-carbonitrile]",1370 nM
10,"Cn1c(=O)c(C#N)c(N2CCC(Sc3ccccc3)CC2)c2cc(C3CC3)ccc21 [Example 147, 6-cyclopropyl-1-methyl-2-oxo-4-[4-(phenylsulfanyl)piperidin-1-yl]-1,2-dihydroquinoline-3-carbonitrile]",32 nM
11,"Cn1c(=O)c(C#N)c(N2CCC(Oc3ccc(F)cc3)CC2)c2cc(C3CC3)ccc21 [Example 148, 6-cyclopropyl-4-[4-(4-fluorophenoxy)piperidin-1-yl]-1-methyl-2-oxo-1,2-dihydroquinoline-3-carbonitrile]",73 nM

# Stronger by IC50, values ahead:
row,IC50,Structure (SMILES)
1,17 nM,"Cn1c(=O)c(C#N)c(N2CCC(Oc3ccc(F)cc3)CC2)c2cc(C#N)ccc21 [Example 146, 4-[4-(4-fluorophenoxy)piperidin-1-yl]-1-methyl-2-oxo-1,2-dihydroquinoline-3,6-dicarbonitrile]"
2,14 nM,"Cn1c(=O)c(C(N)=O)c(N2CCC(OCc3ccccc3F)CC2)c2ccccc21 [Example 126, 4-{4-[(2-fluorophenyl)methoxy]piperidin-1-yl}-1-methyl-2-oxo-1,2-dihydroquinoline-3-carboxamide]"
3,14 nM,"Cn1c(=O)c(C(N)=O)c(N2CCC(OCc3ccc(F)cc3)CC2)c2ccccc21 [Example 127, 4-{4-[(4-fluorophenyl)methoxy]piperidin-1-yl}-1-methyl-2-oxo-1,2-dihydroquinoline-3-carboxamide]"
4,7.7 nM,"Cc1ccc2c(c1)c(N1CCC(Oc3ccc(F)cc3)CC1)c(C#N)c(=O)n2C [Example 141, 4-[4-(4-fluorophenoxy)piperidin-1-yl]-1,6-dimethyl-2-oxo-1,2-dihydroquinoline-3-carbonitrile]"
5,7.7 nM,"Cc1cccc(OC2CCN(c3c(C#N)c(=O)n(C)c4ccc(C)cc34)CC2)c1 [Example 149, 1,6-dimethyl-4-[4-(3-methylphenoxy)piperidin-1-yl]-2-oxo-1,2-dihydroquinoline-3-carbonitrile]"
6,4.7 nM,"Cc1ccc2c(c1)c(N1CCC(Oc3ccc(OC(F)(F)F)cc3)CC1)c(C#N)c(=O)n2C [Example 143, 1,6-dimethyl-2-oxo-4-{4-[4-(trifluoromethoxy)phenoxy]piperidin-1-yl}-1,2-dihydroquinoline-3-carbonitrile]"
7,4.4 nM,"Cn1c(=O)c(C#N)c(N2CCC(Oc3ccc(OC(F)(F)F)cc3)CC2)c2cc(C#N)ccc21 [Example 145, 1-methyl-2-oxo-4-{4-[4-(trifluoromethoxy)phenoxy]piperidin-1-yl}-1,2-dihydroquinoline-3,6-dicarbonitrile]"
8,3 nM,"Cn1c(=O)c(C#N)c(N2CCC(Sc3ccccc3)CC2)c2cc(C#N)ccc21 [Example 144, 1-methyl-2-oxo-4-[4-(phenylsulfanyl)piperidin-1-yl]-1,2-dihydroquinoline-3,6-dicarbonitrile]"
9,2.5 nM,"Cn1c(=O)c(C#N)c(N2CCC(Oc3ccc(OC(F)(F)F)cc3)CC2)c2cccc(S(C)(=O)=O)c21 [Example 136, 8-(methanesulfonyl)-1-methyl-2-oxo-4-{4-[4-(trifluoromethoxy)phenoxy]piperidin-1-yl}-1,2-dihydroquinoline-3-carbonitrile]"
10,2.5 nM,"Cn1c(=O)c(C#N)c(N2CCC(Oc3ccc(OC(F)(F)F)cc3)CC2)c2cc(Br)ccc21 [Example 139, 6-bromo-1-methyl-2-oxo-4-{4-[4-(trifluoromethoxy)phenoxy]piperidin-1-yl}-1,2-dihydroquinoline-3-carbonitrile]"
11,2 nM,"Cc1ccc2c(c1)c(N1CCC(Sc3ccccc3)CC1)c(C#N)c(=O)n2C [Example 142, 1,6-dimethyl-2-oxo-4-[4-(phenylsulfanyl)piperidin-1-yl]-1,2-dihydroquinoline-3-carbonitrile]"
12,1.9 nM,"Cn1c(=O)c(C#N)c(N2CCC(Oc3ccc(F)cc3)CC2)c2cc(Br)ccc21 [Example 137, 6-bromo-4-[4-(4-fluorophenoxy)piperidin-1-yl]-1-methyl-2-oxo-1,2-dihydroquinoline-3-carbonitrile]"
13,1.5 nM,"COc1cccc(OC2CCN(c3c(C#N)c(=O)n(C)c4ccc(Br)cc34)CC2)c1 [Example 138, 6-bromo-4-[4-(3-methoxyphenoxy)piperidin-1-yl]-1-methyl-2-oxo-1,2-dihydroquinoline-3-carbonitrile]"
14,1.4 nM,"Cn1c(=O)c(C#N)c(N2CCC(Sc3ccccc3)CC2)c2cc(Br)ccc21 [Example 140, 6-bromo-1-methyl-2-oxo-4-[4-(phenylsulfanyl)piperidin-1-yl]-1,2-dihydroquinoline-3-carbonitrile]"
